Patent US10703764B2, “Benzopiperazine compositions as BET bromodomain inhibitors” (FORMA Therapeutics, Inc., priority 2013, dated 2020)

Columns and labels:
BRD4 BD2 = molecular target: T1, BRD4 BD2 (Homo sapiens, UniProt O60885); experiment: AlphaScreen binding assay, BRD4 Bromodomain 2
T1 construct: made in house
In short: (§1)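 Compound dilution series were mixed with His-tagged BRD4 bromodomain and biotinylated tetra-acetylated H4 (1-21) peptide at pH 7.3 (BD1 and peptide at 50 nM, BD2 and peptide at 100 nM). Donor and acceptor beads were then added, and plates were equilibrated at least 1 h before reading. IC50 values were fitted with a four-parameter logistic model.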

MV4-11 cells = experiment: Oncology cell growth assay (3-day proliferation, CellTiter-Glo); type: cell-based; details: Homo sapiens, MV4-11, 72 h, AML cell line MV4-11, 72 hours, compounds grouped by IC50 range, read-out: MV4-11 IC50 (inhibition of proliferation, gIC50)
In short: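 72 h, 37° C, 5% CO2; MV4-11, 3000 cells/well, RPMI 1640 + 10% FBS. Compound final 10, 3.3, 1.1, 0.37, 0.12, 0.041, 0.013, 0.0045 μM. Readout CellTiter-Glo luminescence; gIC50 by 4-parameter logistic fit, normalised to DMSO and no-cell background.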

BRD4 BD1 = molecular target: T2, BRD4 BD1 (Homo sapiens, UniProt O60885); experiment: AlphaScreen binding assay, BRD4 Bromodomain 1
T2 construct: made in house
In short: as §1

Compound	IC50 (BRD4 BD2)	IC50 (MV4-11 cells)	IC50 (BRD4 BD1)
CC(=O)N1c2ccc(-c3cnn(CCO)c3)cc2N(c2nn(C)c3ccc(F)cc23)C[C@@H]1C [Example I-189, 1-[(2S)-4-(5-fluoro-1-methyl-1H-indazol-3-yl)-6-[1-(2-hydroxyethyl)-1H-pyrazol-4-yl]-2-methyl-1,2,3,4-tetrahydroquinoxalin-1-yl]ethan-1-one]	0.05 to 0.5 µM	0.1 to 0.5 µM	1 to 10 µM
CC(=O)N1c2ccc(-c3ccc(S(=O)(=O)N(C)C)cc3)cc2N(C(=O)c2ccco2)C[C@@H]1C [Example I-277]	< 0.05 µM	0.1 to 0.5 µM	1 to 10 µM
CC(=O)N1c2ccc(-c3cnn(C4CC4)c3)cc2N(C(=O)Oc2ccc(C)cc2)C[C@@H]1C [Example I-264]	< 0.05 µM	< 0.1 µM	0.1 to 1 µM
COC(=O)N1c2ccc(-c3cnn(CC(=O)N(C)C4CC4)c3)cc2N(C(=O)OC(C)C)C[C@@H]1C [Example I-625]	0.05 to 0.5 µM	> 0.5 µM	0.1 to 1 µM
CC(=O)N1c2ccc(-c3cn[nH]c3)cc2N(C(=O)OC2CCCC2)C[C@@H]1C [Example I-20, (S)-cyclopentyl 4-acetyl-3-methyl-7-(1H-pyrazol-4-yl)-3,4-dihydro-quinoxaline-1(2H)-carboxylate]	0.05 to 0.5 µM	0.1 to 0.5 µM	< 0.1 µM
COC(=O)Nc1cc2c(cc1-c1ccc(S(C)(=O)=O)cc1)N(C(=O)OC(C)C)C[C@H](C)N2C(C)=O [Example I-198, Isopropyl (S)-4-acetyl-6-((methoxycarbonyl)amino)-3-methyl-7-(4-(methylsulfonyl)phenyl)-3,4-dihydroquinoxaline-1 (2H)-carboxylate]	> 0.5 µM	> 0.5 µM	1 to 10 µM
COC(=O)N1c2ccc(-c3cnn(CC4CCS(=O)(=O)CC4)c3)cc2N(C(=O)OC(C)C)C[C@@H]1C [Example I-624]	0.05 to 0.5 µM	> 0.5 µM	0.1 to 1 µM
CC(=O)N1c2ccc(-c3cnn(Cc4ncccn4)c3)cc2N(C(=O)C2CC2)C[C@@H]1C [Example I-126, (S)-1-(4-(cyclopropanecarbonyl)-2-methyl-6-(1-(pyrimidin-2-ylmethyl)-1H-pyrazol-4-yl)-3,4-dihydroquinoxalin-1(2H)-yl)ethanone]	< 0.05 µM	> 0.5 µM	1 to 10 µM
CCOC(=O)N1C[C@H](C)N(C(C)=O)c2ccc(-c3ccc(F)c(S(C)(=O)=O)c3)cc21 [Example I-1100]	0.05 to 0.5 µM	> 0.5 µM	1 to 10 µM
CC(=O)N1c2ccc(-c3cn(C)cn3)cc2N(C(=O)c2ccco2)C[C@@H]1C [Example I-401]	< 0.05 µM	0.1 to 0.5 µM	1 to 10 µM
COc1ccc(-c2ccc3c(c2)N(C(=O)C2CC2)C[C@H](C)N3C(C)=O)cc1N1CCCS1(=O)=O [Example I-1167]	0.05 to 0.5 µM	0.1 to 0.5 µM	0.1 to 1 µM
CCC(C)OC(=O)N1C[C@H](C)N(C(C)=O)c2ccc(-c3ccc(S(C)(=O)=O)cc3)cc21 (stereo partly drawn) [Example I-494]	0.05 to 0.5 µM	0.1 to 0.5 µM	0.1 to 1 µM
CC(=O)N1c2ccc(-c3cccc(NS(C)(=O)=O)c3)cc2N(C(=O)C2CC2)C[C@@H]1C [Example I-1043]	0.05 to 0.5 µM	> 0.5 µM	1 to 10 µM
CC(=O)N1c2ccc(-c3ccc(S(C)(=O)=O)cc3)cc2N(C(=O)Oc2ccccc2Cl)C[C@@H]1C [Example I-225]	< 0.05 µM	< 0.1 µM	0.1 to 1 µM
CCOC(=O)N1C[C@H](C)N(C(C)=O)c2ccc(-c3ccc4c(c3)CCCN4S(C)(=O)=O)cc21 [Example I-1159]	0.05 to 0.5 µM	0.1 to 0.5 µM	0.1 to 1 µM
COC(=O)N1c2ccc(-c3cnn(CCN4CCCC4=O)c3)cc2N(C(=O)OC(C)C)C[C@@H]1C [Example I-628]	0.05 to 0.5 µM	0.1 to 0.5 µM	0.1 to 1 µM
COC(=O)N1c2ccc(-c3cnc(N)cn3)cc2N(C(=O)OC(C)C)C[C@@H]1C [Example I-485]	0.05 to 0.5 µM	> 0.5 µM	0.1 to 1 µM
